The values below come from US20090275099A1 (priority 2004, published 2009).

As usually defined, the EC50 is the concentration giving half of the maximal effect.

Like-named read-outs stand apart in the source and are kept apart here. Bounds are passed on as bounds.

Assay [1] deals with Jurkat cells. The assay is described as follows: cell death at 24 h. The class given is cell-based. How it is done: (§1) Since an early mitochondrial superoxide (O2^−) mediates apoptosis induced by Bz-423, the O2^− response of cells 1 h following incubation with drug was examined, as well as cell death at 24 h, as previously described (see, e.g., Blatt, N. B., et al., 2002 J Clin Invest 110, 1123-1132; incorporated herein by reference in its entirety).

For a further assay, the system named is Ramos B cells. Nature of the assay: cell death of Ramos B cells, propidium iodide exclusion by flow cytometry, 24 h. The class given is cell-based, human. To be noted: Homo sapiens.
Assay [2] addresses T1, mitochondrial F1F0-ATPase (Bos taurus, UniProt P13621+P32876). Nature of the assay: biochemical. Also on record: species or system bovine.
Assay [3] concerns Jurkat cells. Nature of the assay: early O2− (ROS) response, 1 h. The class given is cell-based. As to the method:
(§2) To detect O2^−, cells are incubated with DHE (10 μM) for 30 min at 37° C. and are analyzed by flow cytometry to measure ethidium fluorescence. Flow analysis of mitochondrial transmembrane potential (ψm) is conducted by labeling cells with DiOC6(3) (20 nM) for 15 min at 37 degrees C. A positive control for disruption of ψm is established using carbonyl cyanide m-chlorophenylhydrazone (CCCP, 50 μM). Caspase activation assays are performed with FAM-VAD-fluoromethylketone. Processing of the substrate is evaluated by flow cytometry.
as §1

Assay [4] has as its target T1, mitochondrial F1F0-ATPase. Nature of the assay: biochemical. Also on record: species or system bovine. To be noted: bovine SMPs; read-out: ATPase activity EC50 (μM), Synthesis.
Assay [5] deals with T2, F1F0-ATPase, OSCP subunit (UniProt P48047).
T2 sequence (P48047 1-213): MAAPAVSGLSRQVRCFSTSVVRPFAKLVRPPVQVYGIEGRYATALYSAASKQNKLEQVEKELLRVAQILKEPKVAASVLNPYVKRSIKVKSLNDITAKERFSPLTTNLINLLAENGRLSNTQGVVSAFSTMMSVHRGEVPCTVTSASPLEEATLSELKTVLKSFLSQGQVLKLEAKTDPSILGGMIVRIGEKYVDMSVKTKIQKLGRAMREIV
The assay is described as follows: F1F0-ATPase activity in SMPs reconstituted in the presence or absence of the OSCP. The class given is biochemical, bovine. Also on record: not tied in print to the reconstitution assay. The settings on record: FIG. 19C. How it is done:
An additional OSCP binding assay was conducted. […] Benzodiazepine derivative compounds that bind the OSCP include, but are not limited to: […]

The subject of the next assay is Ramos cells. Nature of the assay: early O2− (ROS) response, 1 h. In kind it is cell-based, human. The settings on record: Homo sapiens, Ramos, 1 h; read-out: ROS EC50 (μM), Ramos cells. How it is done:
as §2, §1

The mark [6] stands for this setting: Jurkat cells, 75 μM PK11195, with or without antioxidant pre-incubation.

On to `CCC(C)N(C)C(=O)c1cc2ccccc2c(-c2ccccc2Cl)n1` (centres unmarked) [PK11195], for which the EC50 in the assay with Jurkat cells [1] (Homo sapiens, Jurkat, 24 h, read-out: Cell death EC50 (μM), Jurkat cells) was 75 µM; in the assay with Ramos B cells (Ramos, 24 h, read-out: Cell death EC50 (μM), Ramos cells), 90 µM; with Ramos B cells (Ramos B cells, 24 h (Table 6), read-out: EC50 (μM), cell death), over 80 µM; in assay [2] (bovine SMPs, read-out: ATPase activity EC50 (μM), Hydrolysis), 230 µM; in the assay with Jurkat cells [3] (Homo sapiens, Jurkat, 1 h, read-out: ROS EC50 (μM), Jurkat cells) it was 56 µM; in assay [4], 33 µM. For the same compound, in the assay with Ramos cells, the EC50 stood at 100 µM. Also, the “% Cell death” value in the assay on Jurkat cells [1] (setting [6]) was found to be 85.5 ± 1.7%. The “inhibition of mitochondrial ATPase activity” value in assay [2] (80 μM) is listed as “do not significantly inhibit mitochondrial ATPase activity”. Besides, the “% ROS+” value in the assay on Jurkat cells [3] (setting [6]) is 67.9 ± 5.0%. The “dependence of F1F0-ATPase inhibition on the OSCP” value in assay [5] is recorded as “more potent inhibitor of F1F0-ATPase activity in the presence of the OSCP”.
